# According to US4900727A, “4H-1-benzopyran-4-one compounds which have anti-inflamatory or immunodulating action” (Hoechst Aktiengesellschaft, priority 1986, dated 1990):
# Counter-ions that a name gives are not always drawn. Like-named read-outs stand apart in the source and are kept apart here.
# Columns and labels:
# [1] = test system: reverse passive Arthus reaction (RPA) in rats; experiment: Reverse passive Arthus reaction (RPA) in rats; type: in vivo, Charles Foster rats of both sexes; conditions: one hour before RPA, edema vs untreated control; for inhibition in vivo at 1.25 mg/kg: dose 1.25 mg/kg p.o.; for inhibition in vivo at 2.5 mg/kg: dose 2.5 mg/kg p.o.; for inhibition in vivo at 5 mg/kg: dose 5.0 mg/kg p.o.; for inhibition in vivo at 10 mg/kg: dose 10.0 mg/kg p.o.
# Method: Charles Foster rats of both sexes, weighing 150-180 g, were sorted into groups of six animals each. 24 hours before the initiation of the RPA, the rats were shaved from the mid-dorsal region and fasted overnight. The test compounds were administered orally one hour before inducing the Arthus reaction. The RPA reaction was induced by intradermal injection of 0.1 ml of appropriately diluted rabbit anti-BSA serum. Immediately after the intradermal exposure, each rat received 0.5 ml of 0.4% bovine serum albumin intraveneously. Four hours after the intradermal challenge, each group of animals was killed by cervical dislocation. The full thickness of the skin was removed from the back of each animal, and a 12 mm diameter disk was punched out with a metal punch from the site of the antiserum injection. The wet weight of each skin site was determined as soon as possible. The edema caused by the RPA was measured as the difference (expressed in mg) between the wet weight of the site injected with antibody and that injected with normal rabbit serum. The results are expressed as the percentage inhibition or potentiation of the edema by the compound as compared with the edema induced in the untreated control animals.
# [2] = test system: carrageenin-induced paw edema in rats; experiment: Systemic anti-inflammatory action on carrageenin-induced paw edema in rats; type: in vivo, male Charles Foster rats; conditions: decrease in paw volume, 3 and 6 hours after carrageenin, from dose/response curve
# Method: Male Charles Foster rats (120-150 g) were fasted for 18 hours, with water ad libitum. The test compound dissolved in distilled water was administered orally. The control group received distilled water. 0/05 ml of 0.5% carrageenin suspension was injected subcutaneously into the plantar region of the left hind paw. Using a Maclab differential volume meter, the paw volume was determined before the carrageenin injection and 3 and 6 hours after the injection. The percentage decrease in paw volume was calculated by the following equation: [formula] The ED50 value was calculated from the dose/response curve. Six animals were used for each group. The results with representative compounds according to the invention and their salts are listed in Table 4, the substituents relating to the following formula Ia: [drawing 11]
# [3] = Rattus norvegicus, po, read-out: ED50
# [4] = Rattus norvegicus, po, 4 h, dose 20.0 mg/kg p.o.
compound,measurement,setting,value
"CN1CC[C@H](c2c(O)cc(O)c3c(=O)cc(-c4ccccc4Cl)oc23)[C@H](O)C1 (single isomer, unassigned) [(-) 2-Chlorophenyl H CH3 HCl.1,5 H2 O, cis-(-)-2-(2-chlorophenyl)-5,7-dihydroxy-8-[4'-(3'-hydroxy-1'-methyl)-piperidinyl]-4H-1-benzopyran-4-one]",inhibition in vivo at 1.25 mg/kg,"[1]; Rattus norvegicus, po, 4 h",34%
same,inhibition in vivo at 2.5 mg/kg,"[1]; Rattus norvegicus, po, 4 h",48.8%
same,inhibition in vivo at 5 mg/kg,"[1]; Rattus norvegicus, po, 4 h",70%
same,inhibition in vivo at 10 mg/kg,"[1]; Rattus norvegicus, po, 4 h",98.8%
same,ED50,[2]; [3],2.4 mg/kg
"CN1CC[C@H](c2c(O)cc(O)c3c(=O)cc(-c4ccccc4)oc23)[C@H](O)C1 (single isomer, unassigned) [(-) Phenyl H CH3 HCl.1/2H2 O, cis-(-)-5,7-dihydroxy-2-phenyl-8-[4'-(3'-hydroxy-1'-methyl)-piperidinyl]-4H-1-benzopyran-4-one]",inhibition in vivo at 2.5 mg/kg,"[1]; Rattus norvegicus, po, 4 h",26.2%
same,inhibition in vivo at 5 mg/kg,"[1]; Rattus norvegicus, po, 4 h",64.5%
same,inhibition in vivo at 10 mg/kg,"[1]; Rattus norvegicus, po, 4 h",92.2%
same,ED50,[2]; [3],1.3 mg/kg
"CN1CC[C@H](c2c(O)cc(O)c3c(=O)cc(-c4ccc(N)cc4)oc23)[C@H](O)C1 (racemic) [(±) 4-Aminophenyl H H 2HCl, 2 H2 O, cis-(±)-2-(4-aminophenyl)-5,7-dihydroxy-8-[4'-(3'-hydroxy-1'-methyl)-piperidinyl]-4H-1-benzopyran-4-one]",ED50,[2]; p.o.,7.4 mg/kg
"CN1CC[C@H](c2c(O)cc(O)c3c(=O)cc(-c4ccc(Cl)cc4Cl)oc23)[C@H](O)C1 (relative stereo) [cis-(±)-2-(2,4-dichlorophenyl)-5,7-dihydroxy-8-[4'-(3'-hydroxy-1'-methyl)-piperidinyl]-4H-1-benzopyran-4-one]",inhibition in vivo at 1.25 mg/kg,"[1]; Rattus norvegicus, po, 4 h",0%
same,inhibition in vivo at 2.5 mg/kg,"[1]; Rattus norvegicus, po, 4 h",41.7%
same,inhibition in vivo at 5 mg/kg,"[1]; Rattus norvegicus, po, 4 h",57.2%
same,inhibition in vivo at 10 mg/kg,"[1]; Rattus norvegicus, po, 4 h",49.5%
same,inhibition in vivo at 20 mg/kg,[1]; [4],76.1%
same,ED50,[2]; [3],5.7 mg/kg
"CN1CC[C@H](c2c(O)cc(O)c3c(=O)cc(-c4ccccc4F)oc23)[C@H](O)C1 (relative stereo) [(±) o-Fluorophenyl H CH3 HCl.2H2 O, cis-(±)-5,7-dihydroxyl-2-(2-fluorophenyl)-8-[4'-(3'-hydroxy-1'-methyl)-piperidinyl]-4H-1-benzopyran-4-one]",inhibition in vivo at 1.25 mg/kg,"[1]; Rattus norvegicus, po, 4 h",0%
same,inhibition in vivo at 2.5 mg/kg,"[1]; Rattus norvegicus, po, 4 h",11.5%
same,inhibition in vivo at 5 mg/kg,"[1]; Rattus norvegicus, po, 4 h",52.7%
same,ED50,[2]; [3],7.6 mg/kg
"CN1CC[C@H](c2c(O)cc(O)c3c(=O)cc(-c4ccc(Cl)cc4)oc23)[C@H](O)C1 (racemic) [(±) 4-chlorophenyl H H HCl, 1.5 H2 O, cis-(±)-2-(4-chlorophenyl)-5,7-dihydroxy-8-[4'-(3'-hydroxy-1'-methyl)-piperidinyl]-4H-1-benzopyran-4-one]",ED50,[2]; p.o.,7.0 mg/kg
"CN1CC[C@H](c2c(O)cc(O)c3c(=O)cc(-c4ccccc4)oc23)[C@H](O)C1 (relative stereo) [(±) Phenyl H CH3 HCl.2H2 O, cis-(±)-5,7-dihydroxy-2-phenyl-8-[4'-(3'-hydroxy-1'-methyl)-piperidinyl]-4H-1-benzopyran-4-one]",inhibition in vivo at 1.25 mg/kg,"[1]; Rattus norvegicus, po, 4 h",57.5%
same,inhibition in vivo at 2.5 mg/kg,"[1]; Rattus norvegicus, po, 4 h",55.6%
same,inhibition in vivo at 5 mg/kg,"[1]; Rattus norvegicus, po, 4 h",68.1%
same,inhibition in vivo at 10 mg/kg,"[1]; Rattus norvegicus, po, 4 h",90.6%
same,inhibition in vivo at 20 mg/kg,[1]; [4],95.7%
same,ED50,[2]; [3],5.7 mg/kg
"CCCc1cc(=O)c2c(O)cc(O)c(C3CCN(C)CC3O)c2o1 (single isomer, unassigned; (-)) [(-) n-C3 H7 H CH3 HCl.H2 O, cis-(-)-5,7-dihydroxy-2-n-propyl-8-[4'-(3'-hydroxy-1'-methyl)-piperidinyl]-4H-1-benzopyran-4-one]",inhibition in vivo at 2.5 mg/kg,"[1]; Rattus norvegicus, po, 4 h",42.7%
same,inhibition in vivo at 5 mg/kg,"[1]; Rattus norvegicus, po, 4 h",41.3%
same,inhibition in vivo at 10 mg/kg,"[1]; Rattus norvegicus, po, 4 h",63.7%
same,inhibition in vivo at 20 mg/kg,[1]; [4],72.1%
same,ED50,[2]; [3],5.8 mg/kg
"CN1CC[C@H](c2c(O)cc(O)c3c(=O)cc(-c4ccccn4)oc23)[C@H](O)C1 (relative stereo) [(±) 2-Pyridyl H CH3 HCl.1.5 H2 O, cis-(±)-5,7-dihydroxy-2-(2-pyridyl)-8-[4'-(3'-hydroxy-1'-methyl)-piperidinyl]-4H-1-benzopyran-4-one]",inhibition in vivo at 1.25 mg/kg,"[1]; Rattus norvegicus, po, 4 h",0%
same,inhibition in vivo at 2.5 mg/kg,"[1]; Rattus norvegicus, po, 4 h",12%
same,inhibition in vivo at 5 mg/kg,"[1]; Rattus norvegicus, po, 4 h",43%
same,inhibition in vivo at 10 mg/kg,"[1]; Rattus norvegicus, po, 4 h",90%
same,inhibition in vivo at 20 mg/kg,[1]; [4],90%
same,ED50,[2]; [3],5.7 mg/kg
"Cc1cc(=O)c2c(O)cc(O)c([C@H]3CCN(C)C[C@H]3O)c2o1 (relative stereo) [(±) CH3 H CH3 HCl, cis-5,7-Dihydroxy-2-methyl-8-[4'-(3'-hydroxy-1'-methyl)-piperidinyl]-4H-1-benzopyran-4-one hydrochloride]",inhibition in vivo at 1.25 mg/kg,"[1]; Rattus norvegicus, po, 4 h",28.8%
same,inhibition in vivo at 2.5 mg/kg,"[1]; Rattus norvegicus, po, 4 h",31.8%
same,inhibition in vivo at 5 mg/kg,"[1]; Rattus norvegicus, po, 4 h",29.8%
same,inhibition in vivo at 10 mg/kg,"[1]; Rattus norvegicus, po, 4 h",35.8%
same,inhibition in vivo at 20 mg/kg,[1]; [4],39.2%
same,ED50,[2]; [3],12.5 mg/kg
"CN1CC[C@H](c2c(O)cc(O)c3c(=O)cc(-c4ccc(F)cc4)oc23)[C@H](O)C1 (relative stereo) [(±) p-Fluorophenyl H CH3 HCl.H2 O, cis-(±)-5,7-dihydroxy-2-(4-fluorophenyl)-8-[4'-(3'-hydroxy-1'-methyl)-piperidinyl]-4H-1-benzopyran-4-one]",inhibition in vivo at 1.25 mg/kg,"[1]; Rattus norvegicus, po, 4 h",24.4%
same,inhibition in vivo at 2.5 mg/kg,"[1]; Rattus norvegicus, po, 4 h",37.4%
same,inhibition in vivo at 5 mg/kg,"[1]; Rattus norvegicus, po, 4 h",61.5%
same,inhibition in vivo at 10 mg/kg,"[1]; Rattus norvegicus, po, 4 h",90%
same,inhibition in vivo at 20 mg/kg,[1]; [4],86.2%
same,ED50,[2]; [3],7.4 mg/kg
"CCCc1cc(=O)c2c(O)cc(O)c(C3CCN(C)CC3O)c2o1 (mixture of isomers) [(±) n-C3 H7 H CH3 HCl.H2 O, cis-5,7-Dihydroxy-2-n-propyl-8-[4'-(3'-hydroxy-1'-methyl)-piperidinyl]-4H-1-benzopyran-4-one hydrochloride]",inhibition in vivo at 1.25 mg/kg,"[1]; Rattus norvegicus, po, 4 h",26%
same,inhibition in vivo at 2.5 mg/kg,"[1]; Rattus norvegicus, po, 4 h",32%
same,inhibition in vivo at 5 mg/kg,"[1]; Rattus norvegicus, po, 4 h",44%
same,inhibition in vivo at 10 mg/kg,"[1]; Rattus norvegicus, po, 4 h",55%
same,inhibition in vivo at 20 mg/kg,[1]; [4],65%
same,ED50,[2]; [3],6.8 mg/kg
"CCc1cc(=O)c2c(O)cc(O)c(C3CCN(C)CC3O)c2o1 (mixture of isomers) [(±) C2 H5 H CH3 HCl.1.5 H2 O, cis-5,7-Dihydroxy-2-ethyl-8-[4'-(3'-hydroxy-1'-methyl)-piperidinyl]-4H-1-benzopyran-4-one hydrochloride]",inhibition in vivo at 1.25 mg/kg,"[1]; Rattus norvegicus, po, 4 h",16%
same,inhibition in vivo at 2.5 mg/kg,"[1]; Rattus norvegicus, po, 4 h",34.3%
same,inhibition in vivo at 5 mg/kg,"[1]; Rattus norvegicus, po, 4 h",41.6%
same,inhibition in vivo at 10 mg/kg,"[1]; Rattus norvegicus, po, 4 h",43.6%
same,inhibition in vivo at 20 mg/kg,[1]; [4],77.1%
same,ED50,[2]; [3],10.5 mg/kg
"Cc1cc(=O)c2c(O)cc(O)c([C@H]3CCN(C)C[C@H]3O)c2o1 (single isomer, unassigned) [(+) CH3 H CH3 HCl, (+)-cis-5,7-Dihydroxy-2-methyl-8-[4'-(3'-hydroxy-1'-methyl)-piperidinyl]-4H-1-benzopyran-4-one hydrochloride]",inhibition in vivo at 1.25 mg/kg,"[1]; Rattus norvegicus, po, 4 h",40.5%
same,inhibition in vivo at 2.5 mg/kg,"[1]; Rattus norvegicus, po, 4 h",48.8%
same,inhibition in vivo at 5 mg/kg,"[1]; Rattus norvegicus, po, 4 h",57.1%
same,inhibition in vivo at 10 mg/kg,"[1]; Rattus norvegicus, po, 4 h",50.4%
same,% inhibition,"[1]; dose 20.0 mg/kg p.o., hydrochloride, 20 mg/kg",43.24%
same,ED50,[2]; [3],9.4 mg/kg
"CN1CC[C@H](c2c(O)cc(O)c3c(=O)cc(-c4ccccc4Cl)oc23)[C@H](O)C1 (relative stereo) [(±) o-Chlorophenyl H CH3 HCl.H2 O, cis-(±)-2-(2-chlorophenyl)-5,7-dihydroxy-8-[4'-3'-hydroxy-1'-methyl)-piperidinyl]-4H-benzopyran-4-one]",inhibition in vivo at 1 mg/kg,"[1]; Rattus norvegicus, po, 4 h, dose 1.0 mg/kg p.o.",37%
same,inhibition in vivo at 2 mg/kg,"[1]; Rattus norvegicus, po, 4 h, dose 2.0 mg/kg p.o.",60%
same,inhibition in vivo at 4 mg/kg,"[1]; Rattus norvegicus, po, 4 h, dose 4.0 mg/kg p.o.",80%
same,ED50,[2]; [3],2.7 mg/kg
